Tests used:
Assay type in all cases: in vivo
Conditions in all cases: 250 g/h, evaluated after 13 days
[1] = tested on: Alopecurus myosuroides (ALOMY); assay: Pre-emergence herbicidal glasshouse test, percentage damage
Summary of the method: (§1)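 Each compound is sprayed at 250 g/h on pots either 1 or 8 days after sowing (pre- and post-emergence respectively). Growth under controlled glasshouse conditions, 24/16 °C day/night and 65% humidity, continues for 13 days before damage is rated on a five-point scale.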

Avena fatua (AVEFA) [2] = assay: as above
Summary of the method: as §1

[3] = tested on: Echinochloa crus-galli (ECHCG); assay: as above
Summary of the method: as §1

Lolium perenne (LOLPE) [4] = assay: as above
Summary of the method: as §1

Setaria faberi (SETFA) [5] = assay: as above
Summary of the method: as §1

Setaria faberi (SETFA) [6] = assay: Post-emergence herbicidal glasshouse test, percentage damage
Summary of the method: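 Percentage damage was scored 13 days after treatment on a five-point scale (1=0-19% to 5=80-100%). Treatments were post-emergence sprays on 8-day-old wheat, barley and SETFA plants in a glasshouse (24/16 °C day/night, 14 h light, 65% humidity), using acetone/water 50:50 with 0.5% Tween 20 at the stated rates. Wheat additionally received cloquintocet-mexyl safener at 50 g/ha.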

[7] = tested on: Alopecurus myosuroides (ALOMY); assay: as above
Summary of the method: as §1

Avena fatua (AVEFA) [8] = assay: as above
Summary of the method: as §1

[9] = tested on: Echinochloa crus-galli (ECHCG); assay: as above
Summary of the method: as §1

Lolium perenne (LOLPE) [10] = assay: as above
Summary of the method: as §1

Structure (SMILES) | ALOMY PRE percentage damage (five point scale) [1] | AVEFA PRE percentage damage (five point scale) (Avena fatua (AVEFA) [2]) | ECHCG PRE percentage damage (five point scale) [3] | LOLPE PRE percentage damage (five point scale) (Lolium perenne (LOLPE) [4]) | SETFA PRE percentage damage (five point scale) (Setaria faberi (SETFA) [5]) | SETFA POST percentage damage (five point scale) (Setaria faberi (SETFA) [6]) | ALOMY POST percentage damage (five point scale) [7] | AVEFA POST percentage damage (five point scale) (Avena fatua (AVEFA) [8]) | ECHCG POST percentage damage (five point scale) [9] | LOLPE POST percentage damage (five point scale) (Lolium perenne (LOLPE) [10])
CC#Cc1cc(C)c(C2C(=O)CC3(CCN(C(=O)NC(=O)c4cc(F)ccn4)CC3)CC2=O)c(C)c1 [Compound A164] | 4 (4=60-79%) | 5 (5=80-100%) | 5 (5=80-100%) | 5 (5=80-100%) | 5 (5=80-100%) | 5 (5=80-100%) | 5 (5=80-100%) | 5 (5=80-100%) | 5 (5=80-100%) | 5 (5=80-100%)
CC#Cc1cc(C)c(C2C(=O)CC3(CCN(S(=O)(=O)CC4COCCO4)CC3)CC2=O)c(C)c1 (stereo not shown) [Compound A39] | 4 (4=60-79%) | 4 (4=60-79%) | 5 (5=80-100%) | 5 (5=80-100%) | 5 (5=80-100%) | 5 (5=80-100%) | 5 (5=80-100%) | 5 (5=80-100%) | 5 (5=80-100%) | 5 (5=80-100%)
CC#Cc1cc(C)c(C2C(=O)CC3(CCN(C(=O)CCc4ccn(C)n4)CC3)CC2=O)c(C)c1 [Compound A183] | 4 (4=60-79%) | 4 (4=60-79%) | 5 (5=80-100%) | 5 (5=80-100%) | 5 (5=80-100%) | 5 (5=80-100%) | 5 (5=80-100%) | 5 (5=80-100%) | 5 (5=80-100%) | 5 (5=80-100%)
CC#Cc1cc(C)c(C2C(=O)CC3(CCN(S(=O)(=O)C4COC4)CC3)CC2=O)c(C)c1 [Compound A83] | 5 (5=80-100%) | 4 (4=60-79%) | 5 (5=80-100%) | 5 (5=80-100%) | 5 (5=80-100%) | 5 (5=80-100%) | 5 (5=80-100%) | 5 (5=80-100%) | 5 (5=80-100%) | 5 (5=80-100%)
CC#Cc1cc(C)c(C2C(=O)CC3(CCN(C(=O)Cc4ccncc4)CC3)CC2=O)c(C)c1 [Compound A100] | 3 (3=40-59%) | 3 (3=40-59%) | 5 (5=80-100%) | 5 (5=80-100%) | 5 (5=80-100%) | 5 (5=80-100%) | 4 (4=60-79%) | 5 (5=80-100%) | 5 (5=80-100%) | 5 (5=80-100%)
CC#Cc1cc(C)c(C2C(=O)CC3(CCN(C(=O)NC(C)(C)CC)CC3)CC2=O)c(C)c1 [Compound A169] | 5 (5=80-100%) | 5 (5=80-100%) | 5 (5=80-100%) | 5 (5=80-100%) | 5 (5=80-100%) | 5 (5=80-100%) | 5 (5=80-100%) | 5 (5=80-100%) | 5 (5=80-100%) | 5 (5=80-100%)
CC#Cc1cc(C)c(C2=C(OC(=O)OC)CC3(CCN(C(=O)COCCOC)CC3)CC2=O)c(C)c1 [Compound P50] | 3 (3=40-59%) | 2 (2=20-39%) | 5 (5=80-100%) | 4 (4=60-79%) | 5 (5=80-100%) | 5 (5=80-100%) | 4 (4=60-79%) | 5 (5=80-100%) | 5 (5=80-100%) | 5 (5=80-100%)
CC#Cc1cc(C)c(C2C(=O)CC3(CCN(C(=O)COC)CC3)CC2=O)c(OC)c1 [Compound A75] | 5 (5=80-100%) | 5 (5=80-100%) | 5 (5=80-100%) | 5 (5=80-100%) | 5 (5=80-100%) | 5 (5=80-100%) | 5 (5=80-100%) | 5 (5=80-100%) | 5 (5=80-100%) | 5 (5=80-100%)
CC#Cc1cc(C)c(C2=C(OC(C)=O)CC3(CCN(C(=O)C4CC4)CC3)CC2=O)c(C)c1 [Compound P29] | 5 (5=80-100%) | 5 (5=80-100%) | 5 (5=80-100%) | 5 (5=80-100%) | 5 (5=80-100%) | 5 (5=80-100%) | 5 (5=80-100%) | 5 (5=80-100%) | 5 (5=80-100%) | 5 (5=80-100%)
CC#Cc1cc(C)c(C2C(=O)CC3(CCN(C(=O)c4ccc(C#N)nc4)CC3)CC2=O)c(C)c1 [Compound A191] | 2 (2=20-39%) | 4 (4=60-79%) | 5 (5=80-100%) | 5 (5=80-100%) | 5 (5=80-100%) | 5 (5=80-100%) | 5 (5=80-100%) | 5 (5=80-100%) | 5 (5=80-100%) | 5 (5=80-100%)
CC#Cc1cc(C)c(C2C(=O)CC3(CCN(C(=O)C4CCOCC4)CC3)CC2=O)c(C)c1 [Compound A38] | 5 (5=80-100%) | 3 (3=40-59%) | 5 (5=80-100%) | 5 (5=80-100%) | 5 (5=80-100%) | 5 (5=80-100%) | 5 (5=80-100%) | 4 (4=60-79%) | 5 (5=80-100%) | 5 (5=80-100%)
CC#Cc1cc(C)c(C2=C(OC(=O)C3CC3)CC3(CCN(C(=O)C4CC4)CC3)CC2=O)c(C)c1 [Compound P1, [3-(cyclopropanecarbonyl)-9-(2,6-dimethyl-4-prop-1-ynyl-phenyl)-10-oxo-3-azaspiro[5.5]undec-8-en-8-yl] cyclopropanecarboxylate] | 5 (5=80-100%) | 5 (5=80-100%) | 5 (5=80-100%) | 5 (5=80-100%) | 5 (5=80-100%) | 5 (5=80-100%) | 5 (5=80-100%) | 5 (5=80-100%) | 5 (5=80-100%) | 5 (5=80-100%)
CC#Cc1cc(C)c(C2C(=O)CC3(CCN(C(=O)C4=COCCO4)CC3)CC2=O)c(C)c1 [Compound A170] | 4 (4=60-79%) | 2 (2=20-39%) | 3 (3=40-59%) | 4 (4=60-79%) | 4 (4=60-79%) | 5 (5=80-100%) | 5 (5=80-100%) | 5 (5=80-100%) | 5 (5=80-100%) | 5 (5=80-100%)
